For series [1] the following is noted: oral, human; cited from earlier work.
For series [2] the following is noted: cited from earlier work.
Series [3] relates to skin. As to the kind of experiment: Skin testing for the cause of the allergic reactions. In kind it is in vivo, human. The following applies: skin testing in the same volunteer. The text has this:
When the use of the cream containing these ingredients was discontinued, the allergic lesions cleared completely without scarring.

Take vitamin E: the “dose above which toxicity is evident” value in series [1] is “above 1 gm/day”.

Take tristeryl glycerol: the solubility in alcohol result in series [2] (alcohol) is given as “very slightly soluble”. The solubility in water entry in series [2] (water) is reported as “insoluble”.

Take `CCOC(=O)CC(O)C(=O)OCC` (stereo not shown) [diethyl malate]: the “ingredient responsible for the allergic reactions” value in series [3] is recorded as “allergic reactions were due to the diethyl malate”.

Values taken from patent US8435547B2, “Cream for stimulating mitochondrial activity in the skin” (priority 2006, dated 2013).
